Legend:
Assay type in all cases: in vivo
Setaria viridis (SETVI) [1] = test: greenhouse test, pre-emergence treatment; conditions: 0.250 kg/ha, pre-emergence method; scale from 0 to 100
Excerpt: (§1) The culture containers used were plastic flowerpots containing loamy sand with approximately 3.0% of humus as the substrate. The seeds of the test plants were sown separately for each species.
(§2) For the pre-emergence treatment, the active ingredients, which had been suspended or emulsified in water, were applied directly after sowing by means of finely distributing nozzles. The containers were irrigated gently to promote germination and growth and subsequently covered with transparent plastic hoods until the test plants had rooted.
(§3) This cover caused uniform germination of the test plants, unless this had been impaired by the active ingredients.
(§4) Depending on the species, the test plants were kept at 10-25° C. or 20-35° C., respectively.
(§5) The test period extended over 2 to 4 weeks. During this time, the test plants were tended, and their response to the individual treatments was evaluated.
(§6) Evaluation was carried out using a scale from 0 to 100. 100 means no emergence of the test plants, or complete destruction of at least the aerial moieties, and 0 means no damage, or normal course of growth. A good herbicidal activity is given at values of 70 to <90 and a very good herbicidal activity is given at values of 90 to 100.
(§7) The test plants used in the greenhouse experiments were of the following species: […]

[2] = system: Amaranthus retroflexus (AMARE); test: greenhouse test, pre-emergence treatment; conditions: pre-emergence method, scale from 0 to 100
Excerpt: as §1, §2, §3, §4, §5, §6, §7

[3] = system: Echinocloa crus-galli (ECHCG); test: greenhouse test, post-emergence treatment; conditions: 0.500 kg/ha, post-emergence method; scale from 0 to 100
Excerpt: as §1
(§8) For the post-emergence treatment, the test plants were first grown to a height of 3 to 15 cm, depending on the plant habit, and only then treated with the active ingredients which had been suspended or emulsified in water. For this purpose, the test plants were either sown directly and grown in the same containers, or they were first grown separately as seedlings and transplanted into the test containers a few days prior to treatment.
as §4, §5, §6, §7

[4] = system: Echinocloa crus-galli (ECHCG); test: greenhouse test, pre-emergence treatment; conditions: 0.125 kg/ha, pre-emergence method; scale from 0 to 100
Excerpt: as §1, §2, §3, §4, §5, §6, §7

[5] = system: Abutilon theophrasti (ABUTH); test: greenhouse test, pre-emergence treatment; conditions: 0.125 kg/ha, pre-emergence method; scale from 0 to 100
Excerpt: as §1, §2, §3, §4, §5, §6, §7

Setaria faberi (SETFA) = test: greenhouse test, pre-emergence treatment; conditions: 0.125 kg/ha, pre-emergence method; scale from 0 to 100
Excerpt: as §1, §2, §3, §4, §5, §6, §7

[6] = system: Apera spica-venti (APESV); test: greenhouse test, pre-emergence treatment; conditions: 0.125 kg/ha, pre-emergence method; scale from 0 to 100
Excerpt: as §1, §2, §3, §4, §5, §6, §7

Setaria viridis (SETVI) [7] = test: greenhouse test, post-emergence treatment; conditions: 1.000 kg/ha, post-emergence method; scale from 0 to 100
Excerpt: as §1, §8, §4, §5, §6, §7

[8] = system: Lolium multiflorum (LOLMU); test: greenhouse test, pre-emergence treatment; conditions: 1.000 kg/ha, pre-emergence method; scale from 0 to 100
Excerpt: as §1, §2, §3, §4, §5, §6, §7

[9] = system: Digitaria sanguinalis (DIGSA); test: greenhouse test, pre-emergence treatment; conditions: 1.000 kg/ha, pre-emergence method; scale from 0 to 100
Excerpt: as §1, §2, §3, §4, §5, §6, §7

[10] = system: Amaranthus retroflexus (AMARE); test: greenhouse test, post-emergence treatment; conditions: 1.000 kg/ha, post-emergence method; scale from 0 to 100
Excerpt: as §1, §8, §4, §5, §6, §7

COC(=O)C1C=CC(NC(=O)C(C)C(=O)Nc2cc(F)cc(F)c2)C1 (mixture of isomers) [I.153]
herbicidal activity against SETVI (Setaria viridis (SETVI) [1]): very good herbicidal activity (a very good herbicidal activity is given at values of 90 to 100)

COC(=O)CC(C)NC(=O)C(C)C(=O)Nc1cc(Cl)cc(Cl)c1 (stereo not shown) [I.1]
herbicidal activity against AMARE ([2]; 0.500 kg/ha): good herbicidal activity (A good herbicidal activity is given at values of 70 to <90)

COC(=O)CC(C)NC(=O)C(C(=O)Nc1cc(Cl)cc(Cl)c1)C1CC1 (stereo not shown) [I.3]
herbicidal activity against ECHCG [3]: good herbicidal activity (A good herbicidal activity is given at values of 70 to <90)

CCS(=O)(=O)NC(=O)CC(C)NC(=O)C(C)C(=O)Nc1cc(C)cc(F)c1 (stereo not shown) [I.14]
herbicidal activity against AMARE ([2]; 0.125 kg/ha): very good herbicidal activity (a very good herbicidal activity is given at values of 90 to 100) | herbicidal activity against ECHCG [4]: good herbicidal activity (A good herbicidal activity is given at values of 70 to <90)

CONC(=O)CC(C)NC(=O)C(C)C(=O)Nc1cc(F)cc(F)c1 (stereo not shown) [I.79]
herbicidal activity against ABUTH [5]: good herbicidal activity (A good herbicidal activity is given at values of 70 to <90)

CCC(C(=O)Nc1cc(Cl)cc(Cl)c1)C(=O)N[C@H]1C=C[C@@H](C(=O)OC)C1 (stereo partly drawn) [I.90, methyl (1S,4R)-4-[2-[(3,5-dichlorophenyl)carbamoyl]butanoylamino]cyclopent-2-ene-1-carboxylate]
herbicidal activity against SETFA (Setaria faberi (SETFA)): good herbicidal activity (A good herbicidal activity is given at values of 70 to <90)

CCc1cccc(NC(=O)C(CC)C(=O)NC(C)CCC(=O)OC)c1 (stereo not shown) [I.117]
herbicidal activity against APESV [6]: very good herbicidal activity (a very good herbicidal activity is given at values of 90 to 100)

CCC(C(=O)Nc1cccc(OC(F)(F)F)c1)C(=O)NC(C)CCC(=O)O (stereo not shown) [I.128]
herbicidal activity against AMARE ([2]; 1.000 kg/ha): very good herbicidal activity (a very good herbicidal activity is given at values of 90 to 100)

CCC(C(=O)Nc1cc(C)cc(F)c1)C(=O)NC(C)CCC(=O)O (stereo not shown) [I.136]
herbicidal activity against SETVI (Setaria viridis (SETVI) [7]): good herbicidal activity (A good herbicidal activity is given at values of 70 to <90)

CCC(C(=O)Nc1cccc(F)c1)C(=O)N[C@H]1C=C[C@@H](C(=O)O)C1 (stereo partly shown) [I.138]
herbicidal activity against LOLMU [8]: good herbicidal activity (A good herbicidal activity is given at values of 70 to <90) | herbicidal activity against DIGSA [9]: good herbicidal activity (A good herbicidal activity is given at values of 70 to <90)

CCC(C(=O)Nc1cc(F)cc(F)c1)C(=O)NC(C)CC(=O)O (stereo not shown) [I.144]
herbicidal activity against AMARE [10]: good herbicidal activity (A good herbicidal activity is given at values of 70 to <90)

— patent publication US20240373847A1, “HERBICIDAL MALONAMIDES” (BASF SE, priority 2021, published 2024)
